Tests used:
OXTR [1] = target: T1, OXTR (Homo sapiens, UniProt P30559); test: Radioligand competitive binding assay (NIMH PDSP)
T1 construct: host or cells: CHO-K1, stably transfected
T1 sequence (P30559 1-389): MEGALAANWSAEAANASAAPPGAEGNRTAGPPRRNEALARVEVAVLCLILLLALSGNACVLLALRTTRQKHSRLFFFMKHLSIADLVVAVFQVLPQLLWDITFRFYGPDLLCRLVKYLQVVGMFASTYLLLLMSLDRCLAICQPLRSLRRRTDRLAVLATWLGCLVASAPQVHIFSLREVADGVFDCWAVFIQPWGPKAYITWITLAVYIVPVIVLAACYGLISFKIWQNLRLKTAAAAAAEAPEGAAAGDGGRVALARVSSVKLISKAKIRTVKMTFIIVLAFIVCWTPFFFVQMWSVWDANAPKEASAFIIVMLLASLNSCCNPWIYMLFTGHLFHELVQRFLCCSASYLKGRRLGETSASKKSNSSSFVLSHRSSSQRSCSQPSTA
Protocol: Radioligand binding assays were carried out by the (NIMH) Psychoactive Drug Screening Program[61]. The detailed experimental protocols for the radioligand assay are available on the NIMH PDSP website at http://pdsp.med.unc.edu/UNC-CH%20Protocol%20Book.pdf. […] Binding data were analyzed and plotted using Prism 8 (GraphPad, San Diego, CA).

[2] = test system: OXTR+ neurons in the auditory cortex; type: cell-based, mouse
Protocol: In vitro recordings were performed in acute slices of the auditory cortex prepared from male and female 2–5 month old OXTRcre∷Ai9 mice. Mice were deeply anesthetized with 5% isoflurane and perfused transcardially with ice-cold dissection buffer containing (in mM): 87 NaCl, 75 sucrose, 2.5 KCl, 1.25 NaH2PO4, 0.5 CaCl2, 7 MgCl2, 25 NaHCO3, 1.3 ascorbic acid, and 10 D-glucose, bubbled with 95%/5% O2/CO2 (pH 7.4). Following perfusion and decapitation, brains were removed and placed in the cold buffer solution, and slices (250–300 μm thick) were prepared with a vibratome (Leica P-1000). Slices were placed in warm artificial cerebrospinal fluid (ACSF, in mM: 124 NaCl, 2.5 KCl, 1.5 MgSO4, 1.25 NaH2PO4, 2.5 CaCl2, and 26 NaHCO3) (33–35 °C) for <30 minutes, then cooled to room temperature (22–24 °C) for at least 30 minutes before use. Slices were transferred to the recording chamber and superfused (2.5–3 ml min^−1) with oxygenated ACSF at 33 °C. Whole-cell current-clamp recordings were made from layer 2/3 pyramidal cells with a Multiclamp 200B or 700B amplifier (Molecular Devices, San Diego). Cortical regions and layers were identified using IR video microscopy (Olympus, Japan), and OXTR-positive neurons were identified based on expression of tdTomato, visualized with an Olympus 40 × water- immersion objective with TRITC filter. […]

OXTR [3] = target: T1, OXTR; test: Calcium flux fluorescence assay (FLUO-8) in CHO-K1 cells stably expressing OXTR; type: cell-based
Protocol: Stably transfected CHO-K1 cell lines overexpressing OXTR or V1a were obtained from Dr. Bryan Roth via the National Institute of Mental Health (NIMH) Psychoactive Drug Screening Program. The cells were cultured and maintained in Hams F12 medium (Gibco, Waltham, MA) supplemented with 400 μg/ml G418 (Gibco, Waltham, MA), 10% heat-inactivated FBS (Gibco, Waltham, MA), 15 mM HEPES (Gibco, Waltham, MA), 100 units ml^−1 of penicillin, 100 μg ml^−1 of streptomycin. The cells were grown in an atmosphere of 37°C and 8% CO2 and were passaged following trypsinization with Trypsin-LE (Gibco, Waltham, MA). CHO-K1 cells overexpressing OXTR were seeded overnight at 50,000 cells/100 μL/well in a black wall/clear bottom 96-well plate pretreated with poly-lysine (Gibco, Waltham, MA). […] The calcium flux assay was carried out on a FlexStation 3 Microplate Reader (Molecular Devices, San Jose, CA).

[4] = test system: mammary tissue from lactating GCaMP6f∷K5CreERT2 mice; test: Ex vivo three-dimensional time-lapse imaging of lactating mammary tissue; type: cell-based, mouse; settings: 85 nM oxytocin in bath
Protocol: Mammary glands were harvested from lactating GCaMP6f;K5CreERT2 mice diced into 3- to 4- mm^3 pieces and loaded with CellTracker Red (1.5 μM, ThermoFisher C34552, ThermoFisher, Waltham, MA) for at least 30 minutes in DMEM/F12 containing 10% FCS. Under these conditions, CellTracker preferentially labels luminal cells. […] Samples were imaged on a Leica TCS SP8 inverted microscope (Leica, Germany) with 20× 0.75NA HC PL APO CS2 objective. For uncaging, a region of interest (ROI) was targeted with a 405 nm laser at 100% laser power for 3s each trial. […] Protocol for image processing and analysis was previously reported in (Stevenson et al., 2020)[48].

[5] = UV-Vis absorption spectra upon 365 nm irradiation; type: physicochemical; settings: 365 nm LED, 3 mW; 20 μM, 1% DMSO/PBS; absorption spectrum unchanged
Protocol: All measurements were performed in the dark or under red light. Samples were stored at −20 °C. UV-Vis spectroscopy was performed using a Cary 60 UV-Vis Spectrophotometer equipped with a PCB 1500 High-Performance Peltier thermostat (Agilent Technologies, Santa Clara, CA). Samples were measured using ultra-micro cuvettes with a 10 mm light path (BrandTech, Essex, CT). Irradiation was performed using an Optoscan Monochromator equipped with an Optosource High-Intensity Arc Lamp (Cairn Research, Kent, UK) set to 15 nm full width at half maximum and installed with a 75 W UXL-S50A xenon arc lamp (USHIO, Tokyo, JP). The light source was set to 365 nm, and the power output was measured at the sample position using a PM100D compact power and energy meter console and S120VC Si photodiode sensor (Thorlabs, Newton, NJ). A constant 3 mW power output at 365 nm was maintained throughout the experiments. The monochromator was controlled using a custom MATLAB program, and data were analyzed and plotted using Prism 8 (GraphPad, San Diego, CA).
For measuring the UV-visible absorption spectra, we prepared a […] DMSO stock solution of each respective compound, diluted to 20 μM (1% DMSO in PBS). A sample (1 mL) of the solution (20 μM) was transferred to a cuvette and measured by under ambient conditions (24 °C). […]

In the case of `CC[C@H](C)[C@@H]1NC(=O)[C@H](Cc2ccc(OCc3ccccc3[N+](=O)[O-])cc2)NC(=O)[C@@H](N)CSSC[C@@H](C(=O)N2CCC[C@H]2C(=O)N[C@@H](CC(C)C)C(=O)NCC(N)=O)NC(=O)[C@H](CC(N)=O)NC(=O)[C@H](CCC(N)=O)NC1=O` [cOT1], the IC50 (OXTR [1]) is reported as 2010 nM and the “toxic effects on neurons in slices” value [2] is reported as “without apparent toxic effects”.
With `CC[C@H](C)[C@@H]1NC(=O)[C@H](Cc2ccc(O)cc2)NC(=O)[C@@H](N)CSSC[C@@H](C(=O)N2CCC[C@H]2C(=O)N[C@@H](CC(C)C)C(=O)NCC(N)=O)NC(=O)[C@H](CC(N)=O)NC(=O)[C@H](CCC(N)=O)NC1=O` [oxytocin] the “activation of OXTR+ cells in presence of OXTR antagonist OTA” value (OXTR [3]; 1 μM agonist with 10 μM OTA, after photolysis with 365 nm LED, Fig. 2e) was “failed to activate”, the “fluorescence (calcium flux)” value (OXTR [3]; oxytocin 1 μM, Fig. 2d, normalized to maximal response produced by oxytocin, mean ± SEM, n=5 wells) was 142.4±1.8 and the “peak depolarization of OXTR+ neurons” value ([2]; 1 μM oxytocin wash-on, or cOT1 wash-in and 365 nm light pulsed at 20 Hz, Fig. 4k) was “significant membrane depolarization”. For the same compound, the “calcium and contraction response to whole-tissue wash on” value [4] was “increase in intracellular calcium, followed by cell and alveolar contraction across all cells” and the “duration of stability towards 365 nm irradiation” value [5] was “at least 30 minutes”.

— article PMC10081362 (Research Square, 2023)
